Test results taken from patent US20110243958A1, “ANTIMICROBIAL AGENTS THAT TARGET BACTERIAL VKOR” (priority 2008, published 2011).
In brackets after ≈: the same amount, converted by molar mass. Entries after “also recorded” stand apart in the source; their conditions may differ.

What was measured:
M. smegmatis = assay: microbe, parasite or virus in culture; assay type: cell-based, Mycobacterium smegmatis; conditions: for growth of M. smegmatis culture: addition to culture
[1] = in animals; cited from earlier work
[2] = test system: some species of mycobacteria; conditions: cited from earlier work
[3] = target: T1, M. tuberculosis VKOR (MtbVKOR) (Mycobacterium tuberculosis, UniProt I6X5W1); assay type: cell-based
T1 sequence (I6X5W1 1-210): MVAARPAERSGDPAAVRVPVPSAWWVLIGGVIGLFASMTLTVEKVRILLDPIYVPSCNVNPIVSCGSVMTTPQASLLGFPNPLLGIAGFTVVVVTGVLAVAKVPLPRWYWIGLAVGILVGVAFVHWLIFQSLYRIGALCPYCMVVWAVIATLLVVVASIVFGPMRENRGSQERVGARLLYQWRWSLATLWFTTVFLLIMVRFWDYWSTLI

[4] = target: T1, M. tuberculosis VKOR (MtbVKOR); assay type: cell-based; remark: listed apart in the source

Structure (SMILES) | growth of M. smegmatis culture (M. smegmatis) | anti-coagulant properties [1] | growth of mycobacteria [2] | levels necessary to inhibit growth in Msmeg (M. smegmatis) | MIC (M. smegmatis; Mycolicibacterium smegmatis, M. smegmatis grown in Middlebrook 7H9 medium (defined medium), alamar blue assay, read-out: minimal inhibitory concentration) [mM] | disulfide bond formation / VKOR activity [3] | levels necessary to inhibit VKOR activity in E. coli [3] | activity of β-galactosidase (increase indicates inhibition of disulfide bond formation) [4]
CC(=O)CC(c1ccccc1)c1c(O)c2ccccc2oc1=O (stereo not drawn) [sodium warfarin] | inhibits growth |  |  |  |  |  |  | 
CC(C)=CCC/C(C)=C/CC/C(C)=C/Cc1c(O)c2ccccc2oc1=O [ferulenol] |  | has anti-coagulant properties | inhibit the growth |  |  |  |  | 
CC(=O)CC(c1ccccc1)c1c(O)c2ccccc2oc1=O (stereo not drawn) [warfarin] | caused inhibition of growth |  |  | high (millimolar concs.) | 4.5 (≈ 1390 µg/mL) | inhibit the tuberculosis VKOR activity; also recorded: inhibit disulfide bond formation | high (millimolar concs.) | significantly increased
